Assay results: PMC8651256 (Environmental science & technology, 2021)
“Also recorded” adds a separate entry of the source.

Experiments:
[1] = biological target: human serum albumin (HSA) (Homo sapiens, UniProt P02768); assay: Differential scanning fluorimetry; conditions: for EC50 / ΔTm / Kd / HSA binding (in words): 0.125 mM HSA; for EC50: 4-parameter variable slope model; for EC50 / Kd: mean ± SD; for ΔTm: maximal melting temperature shift; for HSA binding (in words): DSF; for thermal shift profile at different reaction volumes (volatility check): volumes of 10, 20, 50 and 200 μL per sealed well
Sequence of human serum albumin (HSA) (P02768 25-609): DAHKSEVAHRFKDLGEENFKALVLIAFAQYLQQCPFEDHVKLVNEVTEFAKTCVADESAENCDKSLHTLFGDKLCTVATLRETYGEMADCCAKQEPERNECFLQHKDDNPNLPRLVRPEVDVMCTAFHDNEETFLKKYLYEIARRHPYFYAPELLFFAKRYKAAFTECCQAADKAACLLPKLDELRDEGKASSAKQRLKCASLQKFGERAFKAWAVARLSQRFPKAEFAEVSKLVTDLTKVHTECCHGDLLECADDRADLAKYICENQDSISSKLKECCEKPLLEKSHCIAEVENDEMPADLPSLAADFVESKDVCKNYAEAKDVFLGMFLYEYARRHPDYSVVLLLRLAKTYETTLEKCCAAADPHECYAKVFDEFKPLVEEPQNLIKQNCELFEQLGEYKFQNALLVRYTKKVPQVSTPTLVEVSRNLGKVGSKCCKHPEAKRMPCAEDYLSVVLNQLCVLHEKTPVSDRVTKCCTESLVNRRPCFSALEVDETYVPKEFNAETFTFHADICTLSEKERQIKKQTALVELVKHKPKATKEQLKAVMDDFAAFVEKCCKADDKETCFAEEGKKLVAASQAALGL

[2] = DMSO as solvent; cited from earlier work
[3] = PFAS, single-site ligand binding model

Compound | EC50 ([1]; PFAS) [µM] | ΔTm ([1]; PFAS) [°C] | Kd [1, 3] [µM] | also measured
O=C(O)CCC(F)(F)C(F)(F)C(F)(F)F [3:3 FTCA, 2H,2H,3H,3H-perfluorohexanoic acid] | 2060 ± 510 | 2.24 ± 0.062 | 1710 ± 470 | –
OCCC(F)(F)C(F)(F)C(F)(F)C(F)(F)F [4:2 FTOH, 1H,1H,2H,2H-perfluorohexane-1-ol] | – | 0 ± 0 | – | HSA binding (in words) [1]: not bound by HSA; also recorded: did not bind HSA; thermal shift profile at different reaction volumes (volatility check) [1]: no differences
O=S(=O)(O)CCC(F)(F)C(F)(F)C(F)(F)C(F)(F)F [4:2 FTSA, 2H,2H,3H,3H-perfluorohexanesulfonic acid] | 1450 ± 340 | 3.49 ± 0.12 | 1070 ± 470 | –
O=C(O)CCC(F)(F)C(F)(F)C(F)(F)C(F)(F)C(F)(F)F [5:3 FTCA, 2H,2H,3H,3H-perfluorooctanoic acid] | 1480 ± 240 | 3.62 ± 0.14 | 620 ± 100 | –
OCCC(F)(F)C(F)(F)C(F)(F)C(F)(F)C(F)(F)C(F)(F)F [6:2 FTOH, 1H,1H,2H,2H-perfluorooctanol] | – | 0 ± 0 | – | HSA binding (in words) [1]: not bound by HSA; also recorded: did not bind HSA; thermal shift profile at different reaction volumes (volatility check) [1]: no differences
O=S(=O)(O)CCC(F)(F)C(F)(F)C(F)(F)C(F)(F)C(F)(F)C(F)(F)F [6:2 FTSA, 2H,2H,3H,3H-perfluorooctane-1-sulfonate] | 470 ± 290 | 3.60 ± 0.47 | 370 ± 340 | thermal shift profile at different reaction volumes (volatility check) [1]: no differences
O=C(O)CCC(F)(F)C(F)(F)C(F)(F)C(F)(F)C(F)(F)C(F)(F)F [6:3 FTCA, 2,H,2H,3H,3H-perfluorononanoic acid] | 840 ± 210 | 9.50 ± 0.20 | 810 ± 230 | –
O=C(O)CCC(F)(F)C(F)(F)C(F)(F)C(F)(F)C(F)(F)C(F)(F)C(F)(F)C(F)(F)F [8:3 FTCA, 2,H,2H,3H,3H-perfluoroundecanoate] | 1160 ± 420 | 10.01 ± 0.17 | 970 ± 170 | –
FC(OC(F)(F)C(F)(F)C(F)(F)F)C(F)(F)F (stereo not shown) [E1, 1,1,1,2,2,3,3-heptafluoro-3-(1,2,2,2-tetrafluoroethoxy)propane] | – | – | – | HSA binding (in words) [1]: bound by albumin; EC50 ([1]; EC50, PFAS): 2340 ± 560 µM
O=C(O)C(F)(OC(F)(F)C(F)(F)C(F)(F)F)C(F)(F)F (stereo not shown) [HFPO-DA, hexafluoropropylene oxide dimer acid] | 1830 ± 870 | 13.7 ± 0.17 | 1600 ± 550 | time to rapid and complete conversion of HFPO-DA to E1 [2]: under 4 h
O=S(=O)(O)C(F)(F)C(F)(F)OC(F)(C(F)(F)F)C(F)(F)OC(F)C(F)(F)F (stereo not shown) [Nafion bp2] | 1900 ± 590 | 12.4 ± 0.17 | 1510 ± 370 | –
O=C(O)C(F)(F)C(F)(F)C(F)(F)F [PFBA, perfluorobutanoic acid] | 2610 ± 470 | 6.48 ± 0.18 | 2570 ± 780 | –
O=S(=O)(O)C(F)(F)C(F)(F)C(F)(F)C(F)(F)F [PFBS, perfluorobutanesulfonic acid] | 1720 ± 560 | 11.9 ± 0.11 | 1650 ± 690 | –
O=C(O)C(F)(F)C(F)(F)C(F)(F)C(F)(F)C(F)(F)C(F)(F)C(F)(F)C(F)(F)C(F)(F)F [PFDA, perfluorodecanoic acid] | 1110 ± 170 | 17.2 ± 0.13 | 1190 ± 590 | –
O=C(O)C(F)(F)C(F)(F)C(F)(F)C(F)(F)C(F)(F)F [PFHxA, Perfluorohexanoic acid] | 1400 ± 270 | 10.6 ± 0.24 | 1640 ± 470 | –
O=S(=O)(O)C(F)(F)C(F)(F)C(F)(F)C(F)(F)C(F)(F)C(F)(F)F [PFHxS, perfluorohexanesulfonic acid] | – | – | – | thermal shift profile at different reaction volumes (volatility check) [1]: no differences
O=C(O)C(F)(F)C(F)(F)C(F)(F)C(F)(F)C(F)(F)C(F)(F)C(F)(F)C(F)(F)F [PFNA, perfluorononanoic acid] | 600 ± 230 | 13.4 ± 0.34 | 580 ± 210 | –
O=C(O)C(F)(F)C(F)(F)C(F)(F)C(F)(F)C(F)(F)C(F)(F)C(F)(F)F [PFOA, perfluorooctanoic acid] | – | – | – | EC50 ([1]; EC50, PFAS): 840 ± 150 µM; Kd ([1]; Kd, PFOA stock in HEPES-buffered saline (HBS)): 830 ± 270 µM; Kd ([1]; Kd, PFOA stock in methanol (30% in HBS)): 830 ± 150 µM
O=S(=O)(O)C(F)(F)C(F)(F)C(F)(F)C(F)(F)C(F)(F)C(F)(F)C(F)(F)C(F)(F)F [PFOS, perfluorooctanesulfonic acid] | 1130 ± 320 | 16.2 ± 0.90 | – | –
O=C(O)C(F)(F)C(F)(F)C(F)(F)C(F)(F)F [PFPeA, perfluoropentanoic acid] | 2140 ± 420 | 13.1 ± 0.066 | 2100 ± 560 | –
O=C(O)C(F)(F)C(F)(F)C(F)(F)C(F)(F)C(F)(F)C(F)(F)C(F)(F)C(F)(F)C(F)(F)C(F)(F)F [PFunDA, Perfluoroundecanoic acid] | 1490 ± 48 | 9.02 ± 0.47 | 1360 ± 1060 | –
